Measured values: article PMC7353089, “The Hepatotoxicity of Alantolactone and Germacrone: Their Influence on Cholesterol and Lipid Metabolism in Differentiated HepaRG Cells” (Nutrients, 2020)
“Also recorded” adds a separate entry of the source. Read-outs that look alike come from different tables or passages of the source.

How the values were obtained:
TFRC mRNA = assay: RT-qPCR mRNA expression in dHepaRG cells; assay type: cell-based, human; conditions: single exposure, also at other than toxic concentrations
Procedure: (§2) Three concentrations were selected for each compound (non-toxic, non-toxic/slightly toxic and toxic). […] The expression changes of genes and proteins related to cholesterol metabolism were measured in both single and multiple exposure experiments.
(§3) All treatments were performed in triplicates and every experiment was performed three times. The cells were washed twice with ice cold phosphate-buffered saline (PBS), scrapped and stored at −80 °C until use. Total RNA from cells was isolated using TriReagent according to the manufacturer’s instructions (Biotech, Prague, Czech Republic). The purified RNA was dissolved in 40 µL of diethyl pyrocarbonate (DEPC)-treated water (0.01% DEPC in HPLC water, autoclaved) and stored at −80 °C. The measurement of absorbance at 260 and 280 nm using the NanoDrop ND-1000 UV–VIS Spectrophotometer (Thermo Fisher Scientific, Pardubice, Czech Republic) was used to determine RNA yields and purity. […] Fluorescence data were recorded at the end of each amplification step. Relative expression levels of the target genes were calculated as fold changes in triplicates for each group using the 2^−ΔΔCt method [28] by normalization to the geometric mean of the Ct values of Sdha and Ywhaz, which were used as reference genes.

U87 = conditions: U87, 24 h, read-out: Previously Reported IC50 Values (24 h), cited from earlier work
MCF-7 = conditions: read-out: Previously Reported IC50 Values (24 h), cited from earlier work
SREBP-2 (F) = assay: Western blot protein level in dHepaRG cells; assay type: cell-based, human; conditions: single exposure
Procedure: (§1) All the treatments were performed in triplicates. Protein concentration was measured using the bicinchoninic acid (BCA) protein assay (Sigma Aldrich, Prague, Czech Republic) according to the manufacturer’s instructions. The proteins were loaded onto a 10% sodium dodecyl sulfate (SDS; w/v)–polyacrylamide gel (with 4% stacking gel) and separated by SDS-PAGE electrophoresis. The proteins were transferred onto a nitrocellulose membrane using wet blot (100 V, 90 min). The membrane blocking was performed in a 5% non-fat dry milk/TRIS-buffered saline-Tween-20 (TBS-T) solution at room temperature for 2 h. Incubation with primary antibodies was accomplished overnight at 10 °C. β-actin was used as housekeeping protein (the list of primary antibodies in Table S2). Afterwards, the membrane was washed with 0.05% TBS-T solution for 6 × 5 min, incubated with respective secondary antibodies conjugated with horseradish peroxidase (bovine anti-rabbit (sc2370, Santa Cruz Biotechnology, Santa Cruz, CA, USA) at room temperature for 1.5 h, and rinsed with TBS-T solution for 6 × 5 min. Visualization of protein bands was carried out using a chemiluminescence kit (GE Healthcare, Buckinghamshire, UK).

STAT3 = assay: Western blot protein level in dHepaRG cells; assay type: cell-based, human; conditions: highest tested concentration (equal to IC50)
Procedure: as §1

RIP1 = assay: Western blot protein level in dHepaRG cells; assay type: cell-based, human
Procedure: as §1

NF-κB = assay: Western blot protein level in dHepaRG cells; assay type: cell-based, human
Procedure: as §1

p-STAT3(Y705) = assay: Western blot protein level in dHepaRG cells; assay type: cell-based, human; conditions: for phosphorylated p-STAT3(Y705) protein amount: 12-h exposure
Procedure: as §1

HMGCR = assay: Western blot protein level in dHepaRG cells; assay type: cell-based, human
Procedure: as §1

ICAM-1 = assay: Western blot protein level in dHepaRG cells; assay type: cell-based, human
Procedure: as §1

PLIN4 mRNA = assay: RT-qPCR mRNA expression in dHepaRG cells; assay type: cell-based, human; conditions: single exposure, 6, 12 and 24 h
Procedure: (§4) Three concentrations were selected for each compound (non-toxic, non-toxic/slightly toxic and toxic). The cholesterol level of the dHepaRG cells was measured after a multiple exposure of the highest non-toxic concentrations of tested compounds. […] The expression changes of genes and proteins related to cholesterol metabolism were measured in both single and multiple exposure experiments.
as §3

dHepaRG cells [1] = assay: Lactate dehydrogenase (LDH) leakage; assay type: cell-based, human; conditions: dHepaRG cell viability, read-out: IC50 ± SD, LDH
Procedure: Cryopreserved HepaRG cells were obtained from Biopredic International (Rennes, France). Undifferentiated cells were seeded according to the supplier protocols in 96-well plates for the viability assays, and in 6-well plates for the mRNA and western blot measurements. The cells were cultured for two weeks in Williams E Medium with GlutaMAX™ (Invitrogen, Paisley, UK) supplemented with 10% fetal bovine serum, 2 mM glutamine, 100 IU/mL penicillin, 100 μg/mL streptomycin, 5 μg/mL insulin, and 50 μM hydrocortisone hemisuccinate. The cells were afterwards cultured for another 2-week period in the same medium supplemented with 1.7% DMSO. The medium was replaced every 2–3 days.
Lactate dehydrogenase (LDH) leakage was measured using the Invitrogen™ CyQUANT™ LDH Cytotoxicity Assay Kit according to the manufacturer guidelines using 96-well plates. After 24 and 72-h exposure, the culture medium was collected and diluted ten times by distilled water. Fifty µL of reaction mixture was added to each sample well and mixed. After 30 min of incubation at room temperature, 50 µL of stop solution was added to each well. To determine LDH activity, 680-nm absorbance value (background) was subtracted from the 490-nm absorbance before calculation of % cytotoxicity. Cell lysate was set as 100% of the LDH leakage.

FASN mRNA = assay: RT-qPCR mRNA expression in dHepaRG cells; assay type: cell-based, human; conditions: single exposure, 6, 12 and 24 h
Procedure: as §4, §3

SREBP-1c mRNA = assay: RT-qPCR mRNA expression in dHepaRG cells; assay type: cell-based, human
Procedure: (§5) Three concentrations were selected for each compound (non-toxic, non-toxic/slightly toxic and toxic).
(§6) All treatments were performed in triplicates and every experiment was performed three times. The cells were washed twice with ice cold phosphate-buffered saline (PBS), scrapped and stored at −80 °C until use. Total RNA from cells was isolated using TriReagent according to the manufacturer’s instructions (Biotech, Prague, Czech Republic). The purified RNA was dissolved in 40 µL of diethyl pyrocarbonate (DEPC)-treated water (0.01% DEPC in HPLC water, autoclaved) and stored at −80 °C. The measurement of absorbance at 260 and 280 nm using the NanoDrop ND-1000 UV–VIS Spectrophotometer (Thermo Fisher Scientific, Pardubice, Czech Republic) was used to determine RNA yields and purity. Subsequently, the RNA (4 µg) was treated with 2 U of DNase I (New England Biolabs, Ipswich, MA, USA) in a final volume of 30 µL for 25 min at 37 °C, 1.5 µL of 0.1 M ethylenediaminetetraacetic acid was added and the DNAse was inactivated by heat (5 min at 75 °C). […] Fluorescence data were recorded at the end of each amplification step. Relative expression levels of the target genes were calculated as fold changes in triplicates for each group using the 2^−ΔΔCt method [28] by normalization to the geometric mean of the Ct values of Sdha and Ywhaz, which were used as reference genes.

[2] = system: proliferative liver (HepG2, HuH-7, LO2), breast (MCF7, MDA-MB-231), and glioblastoma cancer cell lines; conditions: after 12 to 24 h; read-out: IC50 values in proliferative cancer cell lines (approximate); cited from earlier work
dHepaRG cells [3] = assay: Cholesterol level (Amplex Red Cholesterol Assay kit); assay type: cell-based, human; conditions: multiple exposure: four applications every 24 h, cells collected 12 h after the last; 30 μM ATL, 100 μM GER
Procedure: The cholesterol content in the dHepaRG cells was tested using the Amplex Red Cholesterol Assay kit (Invitrogen) according to the manufacturer’s instructions and as per An et al.. The cells were collected 12 h after the last exposure of the tested compounds in a 4-day exposure with a medium change every 24 h. The cells were rinsed three times in PBS to eliminate residual growth medium. Whole cell extracts were prepared by 0.5 mL of RIPA lysis buffer (0.5% sodium deoxycholate, 0.1% SDS, 1% NP-40, 150 mM NaCl, 1 mM DTT, 50 mM Tris–HCl (pH = 7.4) and phenylmethanesulfonyl fluoride. Fluorescence was measured using a microplate reader (Tecan Infinite M200) at 530 nm excitation and 590 nm emission wavelengths. The total cholesterol (TC) content was determined by measuring the cholesterol concentration following digestion with cholesterol esterase (CE). To measure the free cholesterol (FC), CE was omitted from the assay. Three independent experiments were performed. The values obtained from a cholesterol standard curve were normalized to protein content, measured by a BCA assay.

PLIN2 mRNA = assay: RT-qPCR mRNA expression in dHepaRG cells; assay type: cell-based, human; conditions: single exposure, the highest concentrations
Procedure: as §4, §3

GPAM mRNA = assay: RT-qPCR mRNA expression in dHepaRG cells; assay type: cell-based, human; conditions: single exposure, 6, 12 and 24 h
Procedure: as §5, §6

MDA-MB-231 = conditions: MDA-MB-231, 24 h; read-out: Previously Reported IC50 Values (24 h); cited from earlier work
ACACB mRNA = assay: RT-qPCR mRNA expression in dHepaRG cells; assay type: cell-based, human; conditions: single exposure, 6, 12 and 24 h
Procedure: as §5, §6

G6PC mRNA = assay: RT-qPCR mRNA expression in dHepaRG cells; assay type: cell-based, human; conditions: single exposure, also at other than toxic concentrations
Procedure: as §2, §3

PPARα mRNA = assay: RT-qPCR mRNA expression in dHepaRG cells; assay type: cell-based, human
Procedure: as §5, §6

[4] = single exposure, 6, 12 and 24 h
[5] = single exposure, toxic concentration after 24 h
[6] = the higher concentrations after 12 and 24-h exposure

## C=C1C(=O)O[C@@H]2C[C@@]3(C)CCC[C@H](C)C3=C[C@H]12 [ATL, alantolactone]
TFRC mRNA
  TFRC mRNA expression: inhibited
U87; ref 10
  IC50: 20 µM
U87; ref 34
  IC50: 33 µM
MCF-7; MCF-7, 24 h
  IC50: 36 µM
SREBP-2 (F); the highest concentration
  functional SREBP-2 (F) protein level: significantly decreased
STAT3
  total STAT3 protein level: decrease
RIP1; 12-h exposure
  RIP1 protein expression: decreased level
RIP1; 24-h exposure, highest concentration
  RIP1 protein expression: decreased
NF-κB; 24-h exposure, the highest concentration
  NF-κB protein level: significant decrease
p-STAT3(Y705); all concentrations tested
  phosphorylated p-STAT3(Y705) protein amount: decreased; also recorded: inhibition
HMGCR; single exposure, after 12 and 24 h
  HMGCR protein amount: decrease
HMGCR; single exposure, the higher concentrations after 12 and 24-h exposure
  HMGCR protein level: decrease
ICAM-1; all concentrations after 12-h exposure
  ICAM-1 protein amount: significantly decreased
PLIN4 mRNA
  PLIN4 mRNA level: decreased
dHepaRG cells [1]; 24 h single exposure
  IC50: 61.1 ± 1.8 µM
dHepaRG cells [1]; 72 h single exposure
  IC50: 57.8 ± 2 µM
FASN mRNA
  FASN mRNA level: significantly decreased
SREBP-1c mRNA; [4]
  SREBP-1c mRNA: dysregulated
[2]
  IC50: 10 to 30 µM
dHepaRG cells [3]
  level of free cholesterol and esterified cholesterol: no effect was observed
PLIN2 mRNA
  PLIN2 mRNA: induced
GPAM mRNA
  GPAM mRNA level: significantly decreased
MDA-MB-231
  IC50: > 15 µM
ACACB mRNA
  ACACB mRNA level: significantly decreased
G6PC mRNA
  G6PC mRNA expression: dysregulated
PPARα mRNA; [5]
  PPARα mRNA expression: inhibited

## CC(C)=C1C/C=C(\C)CC/C=C(\C)CC1=O [GER, germacrone]
TFRC mRNA
  TFRC mRNA expression: inhibited
U87; ref 36
  IC50: 175 µM
MCF-7; MCF7, 24 h, ref 11
  IC50: 195 µM
MCF-7; MCF7, 24 h, ref 37
  IC50: > 200 µM
SREBP-2 (F); 12-h exposure
  functional SREBP-2 (F) protein level: increase
SREBP-2 (F); 24-h exposure
  functional SREBP-2 (F) protein level: no change in protein level
STAT3
  total STAT3 protein level: decrease
RIP1; 12-h exposure
  RIP1 protein expression: decreased level
NF-κB; 12-h exposure
  NF-κB protein level: decreased level
p-STAT3(Y705); both higher concentrations
  phosphorylated p-STAT3(Y705) protein amount: decreased
p-STAT3(Y705); [6]
  p-STAT3 (Y705) phosphorylation: inhibition
HMGCR; multiple exposure: four applications every 24 h, analyzed 12 h after the last, 30 μM ATL, 100 μM GER, 20 μM LOV
  HMGCR protein level: slight decrease
HMGCR; single exposure, only after 12-h exposure
  HMGCR protein amount: decrease
HMGCR; single exposure, the highest concentration after 12-h exposure
  HMGCR protein level: decrease
ICAM-1; [6]
  ICAM-1 protein amount: significantly decreased
PLIN4 mRNA
  PLIN4 mRNA level: no significant change
dHepaRG cells [1]; 24 h single exposure
  IC50: 244 ± 15.5 µM
dHepaRG cells [1]; 72 h single exposure
  IC50: 234 ± 13.4 µM
FASN mRNA
  FASN mRNA level: significantly decreased
SREBP-1c mRNA; [5]
  SREBP-1c mRNA: inhibited
[2]
  IC50: 150 to 250 µM
dHepaRG cells [3]
  level of free cholesterol and esterified cholesterol: no effect was observed
PLIN2 mRNA
  PLIN2 mRNA: induced
GPAM mRNA
  GPAM mRNA level: significantly decreased
MDA-MB-231
  IC50: 244 µM
ACACB mRNA
  ACACB mRNA level: significantly decreased
G6PC mRNA
  G6PC mRNA expression: dysregulated
PPARα mRNA; [4]
  PPARα mRNA expression: no effect
